Patent publication US4252795A, “N-substituted dimeric cyclopeptide derivatives and preparation thereof” (Ayerst McKenna and Harrison Inc., priority 1978, dated 1981)

Tests used:
[1] = tested on: Serratia marcescens; assay: serial broth dilution, growth inhibition; type: cell-based; settings: nutrient broth, incubated at 37° C. for 2 days, examined for presence of growth
Experimental: (§1) Grove and W. A. Randall in "Assay Methods of Antibiotics", Med. Encycl. Inc., [New York] 955. […] 289.
(§2) For example, by employing a test like the serial broth dilution, see Grove and Randall, cited above, in which dilutions of the compounds of this invention in nutrient broth are inoculated with the microorganisms or fungi, described above, incubated at 37° C. for 2 days, respectively, and examined for the presence of growth, it may be shown that the preferred compounds N'N'-dicyclohexyl-α,α'-diisopropyl-2,5,8,11,14,17-hexaoxo-1,4,7,10,13,16-hexaazacyclooctadecane-1,10-diacetamide, isomer L, (Example 1), N'N'-dicyclohexyl-α,α'-diisopropyl-2,5,8,11,14,17-hexaoxo-1,4,7,10,13,16-hexaazacyclooctadecane-1,10-diacetamide, isomer M, (Example 1), and α,α'-diphenyl-N'N'-dicyclohexyl-2,5,8,11,14,17-hexaoxo-1,4,7,10,13,16-hexaazacyclooctadecane-1,10-diacetamide, isomer L, (Example 1) are able to inhibit growth totally in this system of Klebsiella pneumoniae and Serratia marcescens at a concentration of 100 mcg/ml.

[2] = tested on: Klebsiella pneumoniae; assay: serial broth dilution, growth inhibition; type: cell-based; settings: nutrient broth, incubated at 37° C. for 2 days, examined for presence of growth
Experimental: as §1, §2

SMILES	concentration able to inhibit growth totally [1]	concentration able to inhibit growth totally [2]
CC(C)C(C(=O)NC1CCCCC1)N1CC(=O)NCC(=O)NCC(=O)N(C(C(=O)NC2CCCCC2)C(C)C)CC(=O)NCC(=O)NCC1=O (stereo not drawn) [N,N'-Dicyclohexyl-α,α'-diisopropyl-2,5,8,11,14,17-hexaoxo-1,4,7,10,13,16-hexaazacyclooctadecane-1,10-diacetamide]	100 µg/mL	100 µg/mL
O=C1CNC(=O)CN(C(C(=O)NC2CCCCC2)c2ccccc2)C(=O)CNC(=O)CNC(=O)CN(C(C(=O)NC2CCCCC2)c2ccccc2)C(=O)CN1 (stereo not drawn) [α,α'-diphenyl-N,N'-dicyclohexyl-2,5,8,11,14,17-hexaoxo-1,4,7,10,13,16-hexaazacyclooctadecane-1,10-diacetamide]	100 µg/mL	100 µg/mL
